This is an account of results in ChEMBL document CHEMBL4000226, “Inhibitory potential of flavonoids on PtdIns(3,4,5)P3 binding with the phosphoinositide-dependent kinase 1 pleckstrin homology domain” (Bioorg Med Chem Lett, 2017).

The target in assay [1] is 3-phosphoinositide-dependent protein kinase 1 (Homo sapiens) (UniProt O15530). Briefly: Inhibition of sucrose loaded POPC/POPE/POPS/PtdIns(3,4,5)P3 (59:20:20:1) liposome binding to eGFP-fused PDK1 PH domain (unknown origin) expressed in Escherichia coli BL21 at 10 uM after 10 mins by fluorescence spectrophotometry based pull down assay.
Assay [2] shares this target. Nature of the assay: Inhibition of sucrose loaded POPC/POPE/POPS/PtdIns(3,4,5)P3 (59:20:20:1) liposome binding to eGFP-fused PDK1 PH domain (unknown origin) expressed in Escherichia coli BL21 after 10 mins by fluorescence spectrophotometry based pull down assay.

Calls of active or inactive are those of the source. No cut-off for these calls is given here.

Sequence of 3-phosphoinositide-dependent protein kinase 1 (Homo sapiens) (O15530 whole entry, looked up, the tested form may be a part): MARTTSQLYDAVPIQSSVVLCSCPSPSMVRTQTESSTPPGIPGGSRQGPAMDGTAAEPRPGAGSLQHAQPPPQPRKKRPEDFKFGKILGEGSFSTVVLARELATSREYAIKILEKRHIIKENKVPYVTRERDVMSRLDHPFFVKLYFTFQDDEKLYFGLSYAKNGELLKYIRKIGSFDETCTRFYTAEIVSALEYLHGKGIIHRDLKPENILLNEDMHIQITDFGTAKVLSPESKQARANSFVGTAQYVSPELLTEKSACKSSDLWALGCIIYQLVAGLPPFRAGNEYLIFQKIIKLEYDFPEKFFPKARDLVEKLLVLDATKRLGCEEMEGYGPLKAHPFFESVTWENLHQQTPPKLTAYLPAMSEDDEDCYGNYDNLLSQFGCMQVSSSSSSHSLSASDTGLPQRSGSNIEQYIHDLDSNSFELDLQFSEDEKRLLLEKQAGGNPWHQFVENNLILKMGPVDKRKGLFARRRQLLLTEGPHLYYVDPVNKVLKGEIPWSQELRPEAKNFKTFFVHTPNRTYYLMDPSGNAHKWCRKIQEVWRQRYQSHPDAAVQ

Regarding `O=c1cc(-c2ccccc2)oc2cc(O)cc(O)c12`, in assay [1], the inhibition entry is “Active”.
Still for that read-out and setting: then `COc1ccc2c(=O)cc(-c3ccccc3)oc2c1OC`, with “Active”.
`O=c1c(O)c(-c2ccc(O)c(O)c2)oc2c(O)c(O)cc(O)c12`: the inhibition result in assay [2] is “Dose-dependent effect”.
Consider `COc1cc(OC)c2c(=O)cc(-c3ccccc3)oc2c1`, for which, in assay [1], the inhibition result is “Active”.
On the same count and under the same terms, next, `O=c1cc(-c2ccc(O)cc2)oc2cc(O)ccc12`: “Active”.
As for `O=c1c(O)c(-c2ccc(O)c(O)c2)oc2cc(O)cc(O)c12`, the inhibition result in assay [2] was “Dose-dependent effect”.
Consider `O=c1cc(-c2ccccc2)oc2ccccc12`, for which, in assay [1], the inhibition entry was “Active”.
Turning to `O=c1c(O)c(-c2ccccc2)oc2cc(O)cc(O)c12`, the inhibition result in assay [1] was “Active”.
`O=c1c(O)c(-c2ccc(O)c(O)c2)oc2cc(O)ccc12`: the inhibition result in assay [2] is “Dose-dependent effect”. Further, the inhibition result in assay [1] is “Active”.
Turning to `O=c1c(O)c(-c2cc(O)c(O)c(O)c2)oc2cc(O)cc(O)c12`, the inhibition result in assay [2] is “Dose-dependent effect”.
